Measurements from patent publication US20260049079A1, “CHIRAL SYNTHESIS OF FUSED BICYCLIC RAF INHIBITORS” (Jazz Pharmaceuticals Ireland Limited, priority 2020, published 2026).
Converted amounts (≈) assume the structure as drawn. Like-named read-outs stand apart in the source and are kept apart here.

Columns and labels:
[1] = tested on: constitutive ERK phosphorylation in HCT-116 cells (KRAS G13D); test: HCT-116 AlphaLISA SureFire pERK1/2 Cellular Assay; format: cell-based; conditions: Homo sapiens
Experimental: HCT-116 AlphaLISA SureFire pERK1/2 Cellular Assay
(§1) The human HCT-116 colorectal carcinoma cell line (ATCC CCL-247) endogenously expresses the KRAS^G13D mutation, which leads to constitutive activation of the MAP kinase pathway and phosphorylation of ERK. […] Assay read outs took place 2 or 24 hours after dosing with compounds. On the first day, HCT-116 cells were harvested, resuspended in growth medium (McCoys5A with Glutamax (Life Technologies 36600021) and 10% heat-inactivated fetal bovine serum (Sigma F9665)), and counted. Cells were plated in 100 μl per well in each well of a 96-well culture dish (Sigma CLS3598) to a final density of 30,000 (2 hr read) or 15,000 (24 hr read) cells per well and incubated over night at 37° C. and 5% CO2. On day 2, the growth medium was exchanged for dosing medium (McCoys5A with Glutamax (Life Technologies 36600021) and 1% heat-inactivated fetal bovine serum (Sigma F9665)) and the cells were dosed with compounds to produce a 10-point dose response, where the top concentration was 1 μM and subsequent concentrations were at ⅓ log dilution intervals. A matched DMSO control was included. The cells were subsequently incubated for either 2 or 24 hours at 37° C. and 5% CO2. After incubation, media was removed and the cells were incubated with lysis buffer containing phosphatase inhibitors for 15 minutes at room temperature. Cell lysates were transferred to a ½ area 96 well white Optiplate™ (Perkin Elmer 6005569) and incubated with anti-mouse IgG acceptor beads, a biotinylated anti-ERK1/2 rabbit antibody recognizing both phosphorylated and non-phosphorylated ERK1/2, a mouse antibody targeted to the Thr202/Tyr204 epitope and recognizing phosphorylated ERK proteins only, and streptavidin-coated donor beads. The biotinylated antibody binds to the streptavidin-coated donor beads and the phopsho-ERK1/2 antibody binds to the acceptor beads. Plates were read on an EnVision reader (Perkin Elmer) and excitation of the beads at 680 nm with a laser induced the release of singlet oxygen molecules from the donor beads that trigger energy transfer to the acceptor beads in close proximity, producing a signal that can be measured at […]. Both antibodies bound to phosphorylated ERK proteins, bringing the donor and acceptor beads into close proximity. All data were analyzed using the Dotmatics or GraphPad Prism software packages. Inhibition of ERK phosphorylation was assessed by determination of the absolute IC50 value, which is defined as the concentration of compound required to decrease the level of phosphorylated ERK proteins by 50% when compared to DMSO control.

[2] = tested on: constitutive ERK phosphorylation in WiDr cells (BRAF V600E); test: WiDr AlphaLISA SureFire pERK1/2 Cellular Assay; format: cell-based; conditions: Homo sapiens
Experimental: [Worded in the source for another cell line; used here, by the source, with some conditions changed.] as §1
WiDr AlphaLISA SureFire pERK1/2 Cellular Assay […]

[3] = tested on: RAF dimers in HCT-116 cells (Encorafenib-induced pERK signalling); test: HCT-116 AlphaLISA SureFire pERK1/2 Cellular Assay (Dimer); format: cell-based; conditions: Homo sapiens
Experimental: as §1
HCT-116 AlphaLISA SureFire pERK1/2 Cellular Assay (Dimer) […]

[4] = tested on: BRAF monomers in A375 cells (BRAF V600E, pERK); test: A375 AlphaLISA SureFire pERK1/2 Cellular Assay (Monomer); format: cell-based; conditions: Homo sapiens
Experimental: [Worded in the source for another cell line; used here, by the source, with some conditions changed.] as §1
A375 AlphaLISA SureFire pERK1/2 Cellular Assay (Monomer) […]

HCT-116 cells = test: HCT-116 CellTiter-Glo 3D Cell Proliferation Assay; format: cell-based; conditions: Homo sapiens, HCT116 spheroids, read-out: 3D HCT116 pGI50 (converted)
Experimental: HCT-116 CellTiter-Glo 3D) Cell Proliferation Assay
On the first day, HCT-116 cells were harvested, resuspended in growth medium (McCoys5A with Glutamax (Life Technologies 36600021) with 10% heat-inactivated fetal bovine serum (Sigma F9665)), and counted. Cells were plated in 100 μl per well in each well of a Corning 7007 96-well clear round bottom Ultra-Low Attachment plate (VWR 444-1020) to a final density of 1000 cells per well. Cells were seeded for pre- and post-treatment readouts. The cells were then incubated at 37° C. and 5% CO2 for 3 days (72 hours) to allow spheroid formation. After 72 hours, the plate seeded for a pre-treatment read was removed from the incubator to allow equilibration to room temperature for 30 minutes, before CellTitre-Glo® reagent was added to each well. The plates were incubated at room temperature for 5 minutes shaking at 300 rpm, followed by an incubation of 25 minutes on the benchtop before being read on the Envision reader (Perkin Elmer) as described below. On the same day, the cells plated for the post-treatment readout were dosed with compounds to produce a 9-point dose response, where the top concentration was 15 M and following concentrations were at ½ log dilution intervals. […] Therefore, plates were read on an EnVision reader (Perkin Elmer) and luminescence signals were recorded. […]

WiDr cells = test: WiDr CellTiter-Glo 3D Cell Proliferation Assay; format: cell-based; conditions: Homo sapiens, WiDr spheroids, read-out: 3D WiDr pGI50 (converted)
Experimental: The CellTitre Glo® reagent lyses the cells and contains luciferin and a luciferase (Ultra-Glo™ Recombinant Luciferase), which in the presence of ATP and oxygen can produce bioluminescence from luciferin. Therefore, plates were read on an EnVision reader (Perkin Elmer) and luminescence signals were recorded. Cell proliferation was determined on 4 days after dosing relative to the pre-treatment read. All data were analyzed using the Dotmatics or GraphPad Prism software packages. Inhibition of proliferation was assessed by determination of the GIso value, which was defined as the concentration of compound required to decrease the level of cell proliferation by 50% when compared to DMSO control.
The human WiDr colorectal adenocarcinoma cell line (ATCC CCL-218) endogenously expresses the BRAF^V600E mutation, which leads to enhanced survival and proliferative signaling.

[5] = Microsomal Stability Assay (HLM); format: in vitro ADME; conditions: human liver microsomes, 0.5 mg/mL protein, 1 μM compound, 37° C.
Experimental: (§2) Microsomal Stability Assay
(§3) The stability studies were performed manually using the substrate depletion approach. Test compounds were incubated at 37° C. with cryo-preserved mouse or human liver microsomes (Corning) at a protein concentration of 0.5 mg·mL^−1 and a final substrate concentration of 1 μM. Aliquots were removed from the incubation at defined timepoints and the reaction was terminated by adding to ice-cold organic solvent. Compound concentrations were determined by LC-MS/MS analysis. The natural log of the percentage of compound remaining was plotted against each time point and the slope determined. The half-life (t1/2) and CLint were calculated using Equations 1 and 2, respectively. Data analysis was performed using Excel (Microsoft, USA).
(§4) HLM (human liver microsomes) and MLM (mouse liver microsomes) stability assay results are described in Table 34C.

[6] = Microsomal Stability Assay (MLM); format: in vitro ADME; conditions: mouse liver microsomes, 0.5 mg/mL protein, 1 μM compound, 37° C.
Experimental: as §2, §3, §4

[7] = Hepatocyte Stability Assay (HLH); format: in vitro ADME; conditions: human hepatocytes, 0.5×10^6 cells/mL, 1 μM compound, 37° C.
Experimental: (§5) Hepatocyte Stability Assay
(§6) Hepatocyte stability studies were performed manually using the substrate depletion approach. Compounds were incubated at 37° C. with cryo-preserved mouse (Bioreclamation) or human (Corning) hepatocytes at a cell density of 0.5×10^6 cells/mL and a final compound concentration of 1 μM. Sampling was performed at defined timepoints and the reaction was terminated by adding to ice-cold organic solvent. Compound concentrations were determined by LC-MS/MS analysis. The natural log of the percentage of compound remaining was plotted against each time point and the slope determined. The half-life (t1/2) and CLint were calculated using Equations 1 and 3, respectively. Data analysis was performed using Excel (Microsoft, USA).
(§7) HLH (human liver hepatocytes) and MLH (mouse liver heptaocytes) stability assay results are described in Table 34C.

[8] = Hepatocyte Stability Assay (MLH); format: in vitro ADME; conditions: mouse hepatocytes, 0.5×10^6 cells/mL, 1 μM compound, 37° C.
Experimental: as §5, §6, §7

[9] = Plasma Protein Binding Assay (hPPB); format: in vitro ADME; conditions: human plasma, equilibrium dialysis, 5 μM, 4 hours, 37° C.
Experimental: (§8) Plasma Protein Binding Assay
(§9) The plasma protein binding was determined by the equilibrium dialysis method. A known concentration of compound (5 μM) in previously frozen human or mouse plasma (Sera Labs) was dialysed against phosphate buffer using a RED device (Life Technologies) for 4 hours at 37° C. The concentration of compound in the protein containing (PC) and protein free (PF) sides of the dialysis membrane were determined by LC-MS/MS and the % free compound was determined by equation 4. Data analysis was performed using Excel (Microsoft, USA).
(§10) hPPB (human plasma protein binding) and mPPB (mouse plasma protein binding) results are described in Table 34D.

[10] = Plasma Protein Binding Assay (mPPB); format: in vitro ADME; conditions: mouse plasma, equilibrium dialysis, 5 μM, 4 hours, 37° C.
Experimental: as §8, §9, §10

FeSSIF Solubility Assay = format: physicochemical; conditions: fed state simulated intestinal fluid (FeSSIF), thermodynamic from solid, pH 5 acetate buffer, 37° C., read-out: FESSIF sol
Experimental: 1 mL of fed state simulated intestinal fluid (FeSSIF), prepared using FaSSIF/FeSSIF/FaSSGF powder (Biorelevant.com) and pH 5 acetate buffer, was added to 1.0 mg of compound and then incubated for 24 h (Bioshake iQ, 650 rpm, 37° C.). Following filtration under positive pressure, the concentration of compound in solution was assessed by LC-UV in comparison to the response for a calibration standard of known concentration (250 μM). FeSSIF solubility results are described in Table 34D.

[11] = HCT-116, 2 h, read-out: PERK HCT116 (2 hr) Abs plC50
[12] = HCT-116, 24 h, read-out: pERK HCT116 (24 hr) Abs plC50
[13] = WiDr, 2 h, read-out: PERK WiDr (2 hr) Abs plC50
[14] = HCT-116, 1 h, read-out: PERK HCT116 dimer (1 hr) plC50
[15] = A-375, 1 h, read-out: PERK A375 mono (1 hr) plC50

SMILES: O=C1CCc2c(Oc3ccc4c(c3)C[C@@H](c3nc(-c5ccc(F)cc5)c[nH]3)CO4)ccnc2N1 (single isomer, unassigned) [Compound A-1]
- IC50 [1, 11]: 49 nM
- IC50 [1, 12]: 95.5 nM
- IC50 [2, 13]: 45.7 nM
- IC50 [3, 14]: 40.7 nM
- IC50 [4, 15]: 30.9 nM
- GI50 (HCT-116 cells): 40.7 nM
- GI50 (WiDr cells): 52.5 nM
- microsomal CLint at 1 µM [5]: 21.7 µL/min/mg
- microsomal CLint at 1 µM [6]: 16 µL/min/mg
- hepatocyte CLint at 1 µM [7]: 26.8 µL/min/1e6 cells
- hepatocyte CLint at 1 µM [8]: 11 µL/min/1e6 cells
- hPPB (% free) [9]: 0.5 % free
- mPPB (% free) [10]: 0.8 % free
- solubility thermodynamic at 24 h (FeSSIF Solubility Assay): 9.9 µg/mL (≈ 21.7 µM)

SMILES: O=C1CCc2c(Oc3ccc4c(c3)C[C@H](c3nc(-c5ccc(F)cc5)c[nH]3)CO4)ccnc2N1 (single isomer, unassigned) [Compound A-2]
- IC50 [1, 11]: 69.2 nM
- IC50 [1, 12]: 115 nM
- IC50 [2, 13]: 162 nM
- IC50 [3, 14]: 35.5 nM
- IC50 [4, 15]: 275 nM
- GI50 (HCT-116 cells): 263 nM
- GI50 (WiDr cells): 537 nM
- microsomal CLint at 1 µM [5]: 11.8 µL/min/mg
- microsomal CLint at 1 µM [6]: 80.1 µL/min/mg
- hepatocyte CLint at 1 µM [7]: 11.4 µL/min/1e6 cells
- hepatocyte CLint at 1 µM [8]: 12.5 µL/min/1e6 cells
- hPPB (% free) [9]: 0.7 % free
- mPPB (% free) [10]: 0.9 % free
- solubility thermodynamic at 24 h (FeSSIF Solubility Assay): 9.4 µg/mL (≈ 20.6 µM)

SMILES: O=C1CCc2c(Oc3ccc4c(c3)CC(c3ncc(-c5ccc(F)cc5)[nH]3)CO4)ccnc2N1 (racemic) [A-rac]
- IC50 [1, 11]: 74.1 nM
- IC50 [1, 12]: 87.1 nM
- IC50 [2, 13]: 56.2 nM
- IC50 [3, 14]: 49 nM
- IC50 [4, 15]: 55 nM
- microsomal CLint at 1 µM [5]: 26.9 µL/min/mg
- microsomal CLint at 1 µM [6]: 30.6 µL/min/mg
- hepatocyte CLint at 1 µM [7]: 4.6 µL/min/1e6 cells
- hepatocyte CLint at 1 µM [8]: 23.4 µL/min/1e6 cells
- hPPB (% free) [9]: 0.5 % free
- mPPB (% free) [10]: 1.8 % free

SMILES: O=C1CCc2c(Oc3ccc4c(c3)CC(c3nc(-c5cccs5)c[nH]3)CO4)ccnc2N1 (racemic) [B-rac]
- IC50 ([1]; HCT-116, HCT116 cells, 2 hr, absolute pIC50, read-out: PERK HCT116 (2 hr) Abs plC50 (converted)): 19.1 nM
- IC50 ([1]; HCT-116, HCT116 cells, 24 hr, absolute pIC50, read-out: pERK HCT116 (24 hr) Abs plC50 (converted)): 24 nM
- IC50 ([2]; WiDr cells, 2 hr, absolute pIC50, read-out: PERK WiDr (2 hr) Abs plC50 (converted)): 44.7 nM
- IC50 ([3]; HCT-116, HCT116 cells, RAF dimer, 1 hr, read-out: PERK HCT116 dimer (1 hr) plC50 (converted)): 28.2 nM
- IC50 ([4]; A-375, A375 cells, BRAF monomer, 1 hr incubation, read-out: PERK A375 mono (1 hr) plC50 (converted)): 49 nM
- microsomal CLint at 1 µM [5]: 60.1 µL/min/mg
- microsomal CLint at 1 µM [6]: 58.8 µL/min/mg
- hepatocyte CLint at 1 µM [7]: 11.5 µL/min/1e6 cells
- hPPB (% free) [9]: 0.7 % free
- mPPB (% free) [10]: 0.7 % free
